Data from patent publication US8992890B2, “Absorbent dressings with painkilling activity” (Fidia Farmaceutici S.p.A., priority 2011, dated 2015).

Assay: Release of diclofenac from the formulation, in vitro, Franz cell, rabbit plasma
Assay type: in vitro ADME
Procedure: The evaluation of the release kinetics of Diclofenac from the formulation was conducted with a Franz cell, comparing the release of the diclofenac contained in the formulation described in example 1 with an identically formulated composition containing diclofenac sodium (DCFNa) instead of diclofenac acid, at the same percentage.
The Franz cell is an instrument known to the skilled person; briefly, and very simply, it consists of two chambers, the lower one being called the receptor, while the upper one is called the donor. The two cells are separated by a porous membrane and connected to one another; the medium in which the diffusion of the active ingredient in question will be evaluated is loaded into the receptor chamber, and the product to be evaluated is loaded into the donor chamber. The medium flows against the separator membrane, and therefore comes into contact with the product loaded into the donor chamber; the active constituent spreads through the membrane to the receptor chamber, from which aliquots are sampled for testing to determine the extent of release of the active ingredient.
In this specific case, the receptor chamber was loaded with rabbit plasma (10.2 ml); approx. 73 mg of the formulation of Example 1 based on diclofenac acid (DCF/H+), accurately weighed, was placed in the donor chamber, distributed on a cellulose acetate membrane with a porosity (cut-off) of 0.2μ, wetted with rabbit plasma, and an area of 3.46 cm2. When the operating procedures of the Franz cell had been activated, 0.3 ml samples of rabbit serum were taken from the receptor chamber, which was topped up with fresh serum from time to time. The diclofenac is determined by spectrophotometric analysis, calibrating the instrument with rabbit plasma to take account of the effect of the medium on the release of the medicament.
The same procedure was followed to measure the release of diclofenac sodium (DCF/Na) formulated identically to the formulation of Example 1 in qualitative and quantitative terms.

SMILES | duration of release (formulation of Example 1) | drug released after approx. 8 hours (formulation of Example 1, approx. 8 hours) | time within which the drug is exhausted (formulated identically to Example 1 (0.8%)) | medicament released in the first 4 hours (formulated identically to Example 1 (0.8%), first 4 hours)
O=C(O)Cc1ccccc1Nc1c(Cl)cccc1Cl [diclofenac acid] | at least 48 hours | 60% |  | 
O=C(O)Cc1ccccc1Nc1c(Cl)cccc1Cl [diclofenac sodium] |  |  | ≤ 24 h | over 90%
